Reference: US7736624B2, “Methods and compositions for diagnostic and therapeutic targeting of COX-2” (priority 2006, dated 2010)
“Also recorded” adds a separate entry of the source.

What was measured:
[1] = test system: 1483 Head/Neck Squamous Cell Carcinoma Cells; experiment: In vitro cell imaging, 1483 Head/Neck Squamous Cell Carcinoma Cells; assay type: cell-based; conditions: 1483 cells
[2] = Amounts of intact compound in tumors and normal tissues by HPLC-UV/MS; assay type: in vivo, Nude mice
From the text: Additionally, the presence of intact Compound 27vv in tumors and normal tissues were examined by high performance liquid chromatography (HPLC) and mass spectroscopy (MS). Tumors and other tissues were collected from treated mice and immediately frozen on dry ice. Tissues were homogenized in Tris buffer (pH=7.4) and proteins precipitated with acetonitrile (ACN). Protein pellets were collected by centrifugation and dried before reconstitution in Tris buffer pH 7.4 plus 10% methanol. Proteins were purified by reverse-phase solid=phase extraction (RP-SPE) and analyzed by HPLC-UV using the conditions set forth in Table 4:
A standard curve was generated for Compound 27vv between 1 and 15 nmoles. Linear regression analysis generated an equation for the resulting line of y=311624x+85461 (R^2=0.9956). Various normal and tumor samples were then analyzed and the amounts of Compound 27vv present in the samples were determined.
The putative Compound 27vv peak in the tumor samples was collected and analyzed by LCMS in order to verify its identity.

[3] = test system: HCA7 colorectal adenocarcinoma cells; experiment: In vivo imaging of nude mice xenografted with HCA7 cells; conditions: HCA7 subcutaneous xenograft
From the text: In parallel experiments, nude mice were xenografted with a subcutaneous injection on a lateral side of 1×10^6. HCA7 colorectal adenocarcinoma cells (Marsh et al. (1993) J Pathol 170:441-450).

[4] = test system: liver tumors from SW620 cells; experiment: In vivo imaging of nude mice with liver metastases of SW620 cells; conditions: 5 mg/kg i.p.
From the text: Nude mice with liver tumors from SW620 cells (a human colorectal adenocarcinoma cell line that expresses a low level of COX-2 and that is available from ATCC) were obtained from Dr. Ray DuBois of the Vanderbilt-Ingram Cancer Center of Vanderbilt University (Nashville, Tenn., United States of America). Mice were obtained about 8-10 weeks after metastasis of the cells from the spleen. Control mice and mice bearing and tumor metastases were anesthetized and injected intraperitoneally (i.p.) with 5 mg/kg Compound 27vv. Images of injected mice were captured by a XENOGEN® IVIS® Imaging System (Xenogen Corp., Alameda, Calif., United States of America) using a Cy5.5 filter or a DsRed filter (1 second exposure/f2/high resolution/1.5 cm depth). […] At 5 hours post-injection, mice were euthanized and liver tumors were imaged by fluorescence microscopy.

Compound: COc1ccc2c(c1)c(CC(=O)NCCCCNC(=O)c1ccc(C3=c4cc5c6c(c4Oc4c3cc3c7c4CCCN7CCC3)CCC[N+]=6CCC5)c(C(=O)[O-])c1)c(C)n2C(=O)c1ccc(Cl)cc1 [Compound 27eee]
- fluorescent staining of cells ([1]; 200 nM): good specific staining; also recorded: considerable fluorescence
- fluorescent staining after indomethacin pretreatment ([1]; indomethacin pretreatment): reducible by pretreatment with indomethacin

Compound: COc1ccc2c(c1)c(CC(=O)NCCCCNC(=O)c1ccc(C(=O)[O-])c(C3=c4cc5c6c(c4Oc4c3cc3c7c4CCCN7CCC3)CCC[N+]=6CCC5)c1)c(C)n2C(=O)c1ccc(Cl)cc1 [Compound 27vv]
- intact compound in SW620 tumors ([2]; 5 hours post-injection, HPLC and MS): confirmed the presence of intact Compound 27vv
- level in normal liver tissue ([2]; HPLC and MS): below the limit of detection
- Amount of Compound 27vv in sample ([2]; Mouse 1 - giant tumor A): 3.3 nmol
- Compound 27vv ([2]; Mouse 1 - giant tumor A): 31.1 nmol/g
- Amount of Compound 27vv in sample ([2]; Mouse 1 - giant tumor B): 1.8 nmol
- Compound 27vv ([2]; Mouse 1 - giant tumor B): 15.3 nmol/g
- Amount of Compound 27vv in sample ([2]; Mouse 1 - giant tumor C): 4.7 nmol
- Compound 27vv ([2]; Mouse 1 - giant tumor C): 41.1 nmol/g
- Amount of Compound 27vv in sample ([2]; Mouse 1 - giant tumor D): 0.2 nmol
- Compound 27vv ([2]; Mouse 1 - giant tumor D): 0.9 nmol/g
- Compound 27vv nmol/g ([2]; Mouse 2 - normal liver lobe): <Std. A
- Compound 27vv nmol/g ([2]; Mouse 2 - small tumor): <Std. A
- Compound 27vv nmol/g ([2]; Mouse 2 - tissue between the lobes): <Std. A
- tumor fluorescence in vivo and after removal of tumor masses [3]: strong tumor-specific fluorescence
- in vivo fluorescence imaging ([4]; 30 minutes and 3-4 hours post-injection): liver-specific imaging
- fluorescence microscopy of excised liver tumors ([4]; 5 hours post-injection): strongly fluoresced
